Measured values reported in US7589097B2, “Triazol[4,5-d] pyramidine derivatives and their use as purinergic receptor antagonists” (Vernalis Research Limited, priority 2001, dated 2009).
Counter-ions that a name gives are not always drawn.

Row | Compound | melting point [°C]
1 | COc1ccc(C(=O)Cn2nnc3c(-c4ccco4)nc(N)nc32)cc1 [Example 229, 2-(5-amino-7-(2-furyl)-3H-[1,2,3]triazolo[4,5-d]pyrimidin-3-yl)-1-(4-methoxyphenyl)ethanone] | 258.2 to 258.4
2 | Nc1nc(-c2ccco2)c2nnn(Cc3ccc(Cl)c(N)c3)c2n1 [Example 114, 3-(3-amino-4-chlorobenzyl)-7-(2-furyl)-3H-[1,2,3]triazolo[4,5-d]pyrimidine-5-amine] | 256.7 to 257.1
3 | CCOc1cccc(Cn2nnc3c(-c4ccco4)nc(N)nc32)n1 [Example 253, 3-(6-ethoxy-2-pyridylmethyl)-7-(2-furyl)-3H-[1,2,3]triazolo[4,5-d]pyrimidine-5-amine] | 181.8 to 182.1
4 | CSCc1cccc(Cn2nnc3c(-c4ccco4)nc(N)nc32)n1 [Example 234, 7-(2-furyl)-3-(6-methylthiomethyl-2-pyridylmethyl)-3H-[1,2,3]triazolo[4,5-d]pyrimidine-5-amine] | 168.3 to 168.5
5 | CCCc1cccc(Cn2nnc3c(-c4ccco4)nc(N)nc32)n1 [Example 216, 7-(2-furyl)-3-(6-n-propyl-2-pyridylmethyl)-3H-[1,2,3]triazolo[4,5-d]pyrimidine-5-amine] | 178.3 to 178.5
6 | Cc1noc(C)c1Cn1nnc2c(-c3ccco3)nc(N)nc21 [Example 91, 3-(3,5-dimethylisoxazol-4-ylmethyl)-7-(2-furyl)-3H-[1,2,3]triazolo[4,5-d]pyrimidine-5-amine] | 284.3 to 284.5
7 | COCc1cccc(Cn2nnc3c(-c4ccc(C)o4)nc(N)nc32)n1 [Example 183, 3-(6-methoxymethyl-2-pyridylmethyl)-7-(5-methyl-2-furyl)-3H-[1,2,3]triazolo[4,5-d]pyrimidine-5-amine] | 152 to 153.5
8 | CN(C)c1cccc(Cn2nnc3c(-c4ccco4)nc(N)nc32)c1 [Example 162, 3-(3-(N,N-dimethylamino)benzyl)-7-(2-furyl)-3H-[1,2,3]triazolo[4,5-d]pyrimidine-5-amine] | 195.1 to 195.2
9 | Nc1cccc(Cn2nnc3c(-c4cccs4)nc(N)nc32)c1 [Example 48, 3-(3-aminobenzyl)-7-(2-thienyl)-3H-[1,2,3]triazolo[4,5-d]pyrimidine-5-amine] | 265.9 to 266
10 | Cc1cccc(C(=O)C(C)n2nnc3c(-c4ccco4)nc(N)nc32)n1 (stereo not shown) [Example 190, 2-(5-amino-7-(2-furyl)-3H-[1,2,3]triazolo[4,5-d]pyrimidin-3-yl)-1-(6-methyl-2-pyridyl)propanone] | 290.2 to 290.3
11 | Nc1nc(-c2ccco2)c2nnn(CC(=O)NCc3ccccn3)c2n1 [Example 53, (5-amino-7-(2-furyl)-3H-[1,2,3]triazolo[4,5-d]pyrimidin-3-yl)-N-(2-pyridylmethyl)acetamide] | 256.1 to 256.4
12 | CC(C)(C)OC(=O)n1ccc2ccc(Cn3nnc4c(-c5ccco5)nc(N)nc43)cc21 [Example 146, tert-butyl 6-(5-amino-7-(2-furyl)-3H-[1,2,3]triazolo[4,5-d]pyrimidine-3-ylmethyl)indole-1-carboxylate] | 180 to 180.5
13 | C[Si](C)(C)CCOCOc1cc([N+](=O)[O-])ccc1Cn1nnc2c(-c3ccco3)nc(N)nc21 | 136.5 to 137.6
14 | Cc1ccc(-c2nc(N)nc3c2nnn3Cc2cccc(N)c2C)o1 [Example 180, 3-(3-amino-2-methylbenzyl)-7-(5-methyl-2-furyl)-3H-[1,2,3]triazolo[4,5-d]pyrimidine-5-amine] | 278.4 to 279.9

More lines, now with the values ahead:

Row | melting point [°C] | Compound
15 | 243.4 to 243.9 | COc1ccc([N+](=O)[O-])cc1Cn1nnc2c(-c3ccco3)nc(N)nc21 [Example 66, 7-(2-Furyl)-3-(2-methoxy-5-nitrobenzyl)-3H-[1,2,3]triazolo[4,5-d]pyrimidine-5-amine]
16 | 231.7 to 234 | Cc1ccc(-c2nc(N)nc3c2nnn3Cc2cccc(N)c2)o1 [Example 36, 3-(3-aminobenzyl)-7-(5-methyl-2-furyl)-3H-[1,2,3]triazolo[4,5-d]pyrimidine-5-amine]
17 | 228.2 to 228.3 | Nc1cccc(Cn2nnc3c(-c4cncs4)nc(N)nc32)c1 [Example 50, 3-(3-aminobenzyl)-7-(5-thiazolyl)-3H-[1,2,3]triazolo[4,5-d]pyrimidine-5-amine]
18 | 225.7 to 225.8 | Cc1ccnc(Cn2nnc3c(-c4ccco4)nc(N)nc32)c1 [Example 131, 7-(2-furyl)-3-(4-methyl-2-pyridylmethyl)-3H-[1,2,3]triazolo[4,5-d]pyrimidine-5-amine]
19 | 247.1 to 247.2 | Cc1c(N)cccc1Cn1nnc2c(-c3ccco3)nc(N)nc21 [Example 89, 3-(3-amino-2-methylbenzyl)-7-(2-furyl)-3H-[1,2,3]triazolo[4,5-d]pyrimidine-5-amine]
20 | 226.5 to 227.9 | CC(C)c1cc(Cn2nnc3c(-c4ccco4)nc(N)nc32)nc(C(C)C)c1 [Example 199, 3-(4,6-diisopropyl-2-pyridylmethyl)-7-(2-furyl)-3H-[1,2,3]triazolo[4,5-d]pyrimidine-5-amine]
21 | 252.8 to 253.3 | Nc1cccc(Cn2nnc3c(-c4nccs4)nc(N)nc32)c1 [Example 83, 3-(3-aminobenzyl)-7-(2-thiazolyl)-3H-[1,2,3]triazolo[4,5-d]pyrimidine-5-amine]
22 | 227.5 to 228.5 | COc1ccc(Cn2nnc3c(-c4ccco4)nc(N)nc32)cc1OC (as salt: trifluoroacetate) [Example 122, 3-(3,4-dimethoxybenzyl)-7-(2-furyl)-3H-[1,2,3]triazolo[4,5-d]pyrimidine-5-amine trifluoroacetate salt]
23 | 176.3 to 176.5 | CC(C)(C)OC(=O)n1ccc2cccc(Cn3nnc4c(-c5ccco5)nc(N)nc43)c21 [Example 137, tert-butyl 7-(5-amino-7-(2-furyl)-3H-[1,2,3]triazolo[4,5-d]pyrimidine-3-ylmethyl)indole-1-carboxylate]
24 | 204.2 to 204.4 | CC(C)(C)OC(=O)NCc1ccccc1Cn1nnc2c(-c3ccco3)nc(N)nc21 [Example 157, tert-butyl N-(2-(5-amino-7-(2-furyl)-3H-[1,2,3]triazolo[4,5-d]pyrimidine-3-ylmethyl)benzyl)carbamate]
25 | 250.1 to 261.3 | Cc1cc(Cn2nnc3c(-c4ccco4)nc(N)nc32)cc(C)c1N [Example 262, 3-(4-amino-3,5-dimethylbenzyl)-7-(2-furyl)-3H-[1,2,3]triazolo[4,5-d]pyrimidine-5-amine]
26 | 226.6 to 226.9 | Cc1ccc([N+](=O)[O-])c(Cn2nnc3c(-c4ccco4)nc(N)nc32)c1 [Example 96, 7-(2-furyl)-3-(5-methyl-2-nitrobenzyl)-3H-[1,2,3]triazolo[4,5-d]pyrimidine-5-amine]
27 | 238.2 to 238.6 | CS(=O)(=O)Cc1cccc(Cn2nnc3c(-c4ccco4)nc(N)nc32)n1 [Example 238, 7-(2-furyl)-3-(6-methylsulphonylmethyl-2-pyridylmethyl)-3H-[1,2,3]triazolo[4,5-d]pyrimidine-5-amine]
28 | 195.4 to 196.5 | COc1ccccc1Cn1nnc2c(-c3ccc(C)o3)nc(N)nc21 [Example 72, 3-(2-methyoxybenzyl)-7-(5-methyl-2-furyl)-3H-[1,2,3]triazolo[4,5-d]pyrimidine-5-amine]
